According to patent US20110112151A1, “COMPOUND CAPABLE OF INHIBITING 11-BETA HYDROXYSTERIOD DEHYDROGENASE” (priority 2008, published 2011):

The compounds below were run against T1, 11β-HSD1 (Homo sapiens, UniProt P28845) (assay: 11β-HSD1 HEK assay (cell based assay, SPA)). Conditions: HEK293; at 1 μM; whole HEK 293 cells stably transfected with the HSD11B1 gene, 3H-cortisone substrate; read-out: Activity (inhibition of 11β-HSD1).
T1 construct: expressed in transfected cells; host or cells: HEK 293 (stably transfected, HEK 293/HSD11B1)
Procedure: 11β-HSD1 HEK Assay Protocol (Cell Based Assay)
11β-HSD1 activity is measured in whole HEK 293 cells stably transfected with the HSD11B1 gene. Cells are incubated in 96-well microplates in the presence of tritiated substrate. Enzyme activity is determined by measuring the amount of tritated product by scintillation proximity assay (SPA). Assay plates contain internal high and low controls to allow calculation of percentage inhibition.
1. […] 2. When the cells are 80% confluent the medium is removed from each well. 100 μl fresh, serum-free, medium containing ^3H-cortisone and test compound in 1% DMSO is added to each well*. Control wells are also dispensed. […] 3. The plate is incubated at 37° C. for the required time period. 4. 50 μl of media is removed from each well and transferred to a microplate containing 100 μl of a pre-incubated mixture of anti-cortisol antibody and SPA bead. The mixture is incubated with gentle shaking until equilibrium is reached, before transferring to a scintillation counter to establish the enzyme activity in each sample.
10 μl of compound is dispensed into each well of a 96-well microplate in 10% DMSO at 100 μM concentration. 90 μl media containing ^3H-cortisone is added to each well. The compound/media/substrate mixture is then transferred to the assay plate containing the cells. […]

T1 sequence (P28845 whole entry): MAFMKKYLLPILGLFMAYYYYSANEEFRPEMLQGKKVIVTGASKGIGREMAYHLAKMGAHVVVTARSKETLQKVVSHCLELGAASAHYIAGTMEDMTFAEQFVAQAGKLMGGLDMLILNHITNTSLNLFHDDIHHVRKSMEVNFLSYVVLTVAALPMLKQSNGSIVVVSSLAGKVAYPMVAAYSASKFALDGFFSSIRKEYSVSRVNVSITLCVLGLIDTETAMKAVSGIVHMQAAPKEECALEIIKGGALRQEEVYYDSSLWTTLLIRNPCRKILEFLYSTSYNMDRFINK

Row | inhibition at 1 µM | Structure (SMILES)
1 | 20 to 60% | O=C(COc1cccc(Cl)n1)C12CC3CC(CC(C3)C1)C2 [Example 58, 1-Adamantan-1-yl-2-(6-chloro-pyridin-2-yloxy)-ethanone]
2 | 20 to 60% | O=C(COCc1ccc(C(F)(F)F)nc1)C12CC3CC(CC(C3)C1)C2 [Example 56, 1-Adamantan-1-yl-2-(6-trifluoromethyl-pyridin-3-ylmethoxy)-ethanone]
3 | > 60% | COc1ccncc1COCC(=O)C12CC3CC(CC(C3)C1)C2 [Example 85, 2-((4-methoxypyridin-3-yl)methoxy)-1-adamantylethanone]
4 | > 60% | O=C(CSc1ccccn1)C12CC3CC(CC(C3)C1)C2 [Example 12, 1-Adamantan-1-yl-2-(pyridin-2-ylsulfanyl)-ethanone]
5 | > 60% | O=C(CS(=O)(=O)Cc1ccncc1)C12CC3CC(CC(C3)C1)C2 [Example 83, 1-Adamantan-1-yl-2-(pyridin-4-ylmethanesulfonyl)-ethanone]
6 | 20 to 60% | O=C(CSCc1ccc(C(F)(F)F)nc1)C12CC3CC(CC(C3)C1)C2 [Example 59, 1-Adamantan-1-yl-2-(6-trifluoromethyl-pyridin-3-ylmethylsulfanyl)-ethanone]
7 | > 60% | Cc1cccc(S(=O)(=O)CC(=O)C23CC4CC(CC(C4)C2)C3)n1 [Example 30, 1-(adamantan-1-yl)-2-[(6-methylpyridine-2-)sulfonyl]ethan-1-one]
8 | 20 to 60% | O=C(CS(=O)(=O)Cc1ccc(C(F)(F)F)nc1)C12CC3CC(CC(C3)C1)C2 [Example 69, 1-Adamantan-1-yl-2-(6-trifluoromethyl-pyridin-3-ylmethanesulfonyl)-ethanone]
9 | > 60% | NC(=O)c1ccc(SCC(=O)C23CC4CC(CC(C4)C2)C3)nc1 [Example 37, 6-(2-Adamantan-1-yl-2-oxo-ethylsulfanyl)-nicotinamide]
10 | > 60% | O=C(CSCc1ccncc1)C12CC3CC(CC(C3)C1)C2 [Example 81, 1-Adamantan-1-yl-2-(pyridin-4-ylmethylsulfanyl)-ethanone]

More lines, now with the values behind:

Row | Structure (SMILES) | inhibition at 1 µM
11 | Cn1ccnc1[S+]([O-])CC(=O)C1(c2ccc(Cl)cc2)CC1 (stereo not drawn) [Example 2, 1-[1-(4-Chloro-phenyl)-cyclopropyl]-2-(1-methyl-1H-imidazole-2-sulfinyl)-ethanone] | < 20%
12 | Cn1cnnc1[S+]([O-])CC(=O)C1(c2ccc(Cl)cc2)CCC1 (stereo not drawn) [Example 109, 1-(1-(4-Chlorophenyl)cyclobutyl)-2-(4-methyl-4H-1,2,4-triazol-3-ylsulfinyl)ethanone] | < 20%
13 | Cn1cnnc1SCC(=O)C(C)(C)c1ccc(Cl)cc1 [Example 99, 3-(4-Chlorophenyl)-3-methyl-1-(4-methyl-4H-1,2,4-triazol-3-ylthio)butan-2-one] | 20 to 60%
14 | Cc1cc(C)c(C(=O)CSc2ccccn2)c(C)c1 [Example 73, 2-(Pyridin-2-ylsulfanyl)-1-(2,4,6-trimethyl-phenyl)-ethanone] | < 20%
15 | O=C(CS(=O)(=O)c1ccccn1)C1(c2ccc(Cl)cc2)CC1 [Example 6, 1-[1-(4-Chloro-phenyl)-cyclopropyl]-2-(pyridine-2-sulfonyl)-ethanone] | < 20%
16 | Cn1ccnc1[S+]([O-])CC(=O)C1(c2ccc(Cl)cc2)CCCC1 (stereo not drawn) [Example 44, 1-[1-(4-Chloro-phenyl)-cyclopentyl]-2-(1-methyl-1H-imidazole-2-sulfinyl)-ethanone] | 20 to 60%
17 | Cc1cc(C)c(C(=O)CSc2nccn2C)c(C)c1 [Example 74, 2-(1-Methyl-1H-imidazol-2-ylsulfanyl)-1-(2,4,6-trimethyl-phenyl)-ethanone] | < 20%
18 | Cn1ccnc1SCC(=O)C1(c2ccc(Cl)cc2)CC1 [Example 1, 1-[1-(4-Chloro-phenyl)-cyclopropyl]-2-(1-methyl-1H-imidazol-2-ylsulfanyl)-ethanone] | > 60%
19 | CC(=O)Nc1nnc(S(=O)(=O)CC(=O)C23CC4CC(CC(C4)C2)C3)s1 [Example 93, N-(5-{[2-(Adamantan-1-yl)-2-oxoethane]sulfonyl}-1,3,4-thiadiazol-2-yl)acetamide] | > 60%
20 | O=C(C[S+]([O-])c1ccccn1)C1(c2ccc(Cl)cc2)CC1 (stereo not drawn) [Example 5, 1-[1-(4-Chloro-phenyl)-cyclopropyl]-2-(pyridine-2-sulfinyl)-ethanone] | 20 to 60%
21 | Cn1cnnc1SCC(=O)C1(c2ccc(Cl)cc2)CC1 [Example 100, 1-(1-(4-Chlorophenyl)cyclopropyl)-2-(4-methyl-4H-1,2,4-triazol-3-ylthio)ethanone] | 20 to 60%
22 | Cn1cnnc1SCC(=O)C1(c2ccc(Cl)cc2)CCC1 [Example 108, 1-(1-(4-Chlorophenyl)cyclobutyl)-2-(4-methyl-4H-1,2,4-triazol-3-ylthio)ethanone] | 20 to 60%
23 | Cc1ccc(OCC(=O)C(C)(C)c2ccc(Cl)cc2)cn1 [Example 71, 3-(4-Chloro-phenyl)-3-methyl-1-(6-methyl-pyridin-3-yloxy)-butan-2-one] | > 60%
24 | Cn1ccnc1S(=O)(=O)CC(=O)C1(c2ccc(Cl)cc2)CC1 [Example 3, 1-[1-(4-Chloro-phenyl)-cyclopropyl]-2-(1-methyl-1H-imidazole-2-sulfonyl)-ethanone] | < 20%
25 | Cc1cc(C)c(C(=O)COc2ccc(C)nc2)c(C)c1 [Example 70, 2-(6-Methyl-pyridin-3-yloxy)-1-(2,4,6-trimethyl-phenyl)-ethanone] | < 20%
26 | Cc1nnc([S+]([O-])CC(=O)C23CC4CC(CC(C4)C2)C3)s1 (stereo not drawn) [Example 80, 1-Adamantan-1-yl-2-(5-methyl-[1,3,4]thiadiazole-2-sulfinyl)-ethanone] | > 60%
27 | O=C(COCc1ccccn1)C1(c2ccc(Cl)cc2)CCC1 [Example 42, 1-[1-(4-Chloro-phenyl)-cyclobutyl]-2-(pyridin-2-ylmethoxy)-ethanone] | < 20%
28 | Cn1ccnc1SCC(=O)C1(c2ccc(Cl)cc2)CCCCC1 [Example 40, 1-[1-(4-Chloro-phenyl)-cyclohexyl]-2-(1-methyl-1H-imidazol-2-ylsulfanyl)-ethanone] | 20 to 60%
29 | O=C(CSc1ccccn1)C1(c2ccc(Cl)cc2)CCC1 [Example 20, 1-[1-(4-Chloro-phenyl)-cyclobutyl]-2-(pyridin-2-ylsulfanyl)-ethanone] | 20 to 60%
30 | Cn1ccnc1SCC(=O)C1(c2ccc(Cl)cc2)CCC1 [Example 21, 1-[1-(4-Chloro-phenyl)-cyclobutyl]-2-(1-methyl-1H-imidazol-2-ylsulfanyl)-ethanone] | 20 to 60%
31 | Cc1cc(C)c(C(=O)C[S+]([O-])c2ccccn2)c(C)c1 (stereo not drawn) [Example 82, 1-mesityl-2-(pyridin-2-ylsulfinyl)ethanone] | < 20%
32 | Cn1ccnc1SCC(=O)C(C)(C)c1ccc(Cl)cc1 [Example 52, 3-(4-Chloro-phenyl)-3-methyl-1-(1-methyl-1H-imidazol-2-ylsulfanyl)-butan-2-one] | > 60%

Same assay, conditions: at 1 μM; whole HEK 293 cells stably transfected with the HSD11B1 gene, 3H-cortisone substrate

Row | Structure (SMILES) | Activity (inhibition of 11β-HSD1)
33 | Cn1ccnc1S(=O)(=O)CC(=O)C1(c2ccc(Cl)cc2)CCCCC1 [Example 45, 1-[1-(4-Chloro-phenyl)-cyclohexyl]-2-(1-methyl-H-imidazole-2-sulfonyl)-ethanone] | b (from 20 to 60% inhibition of 11β-HSD1 at 1 μM)
